Earlier results, collected in US7611715B2, “Agaricus extract for preventing the induction or metastasis of cancer” (SSI Co., Ltd., priority 2002, dated 2009).

Details: calculated

With `CCOC(N)=O` [Urethane, ethyl carbamate] as the compound, how does the safety dose (virtually safe dose, VSD) in human for liver cancer read?
Its safety dose (virtually safe dose, VSD) in human for liver cancer is 7.2e-05 mg/kg body weight.
